The source of these data is patent US20090202518A1, “Treatment of sepsis and inflammation with alpha2A Adrenergic antagonists” (The Feinstein Institute of Medical Research, priority 2005, published 2009).

“Also recorded” adds a separate entry of the source.

The test system of one assay is Kupffer cells (KCs). Briefly: TNF-α release from cultured Kupffer cells. Format: cell-based. The text has this: The nervous system regulates the inflammatory response in real time. Our previous studies have shown that the sympathetic neurotransmitter, norepinephrine (NE), increases TNF-α release via activation of α2A-adrenoceptor (α2A-AR) on Kupffer cells (KCs). In cultured KCs, NE increases the release of TNF-α by 3.4-fold and a specific antagonist for α2A-AR, BRL-44408 maleate, reduces TNF-α secretion by 51%. However, it remains unknown whether in vivo administration of α2A-AR antagonists in sepsis is beneficial.

Assay [1] concerns male rats with sepsis induced by cecal ligation and puncture (CLP). Put plainly: Cecal ligation and puncture (CLP) model of sepsis in rats. Format: in vivo, rat. Here is the method:
Sepsis was induced in male rats by cecal ligation and puncture (CLP). The CLP model of sepsis has been used extensively as a reliable model of the pathophysiologic and immunologic alterations in human sepsis.
BRL-44408 maleate (2.5 mg/kg BW) was administered intravenously at the time of CLP. Twenty hours after CLP, the rats were sacrificed and blood and liver samples were collected. Serum levels of TNF-α, liver enzymes (i.e., AST and ALT), lactate and creatinine were measured. Gene expression of TNF-α in the liver was analyzed. In additional groups of animals, the necrotic cecum was excised at 20 h post-CLP and the 10-day survival was recorded.

The mark [2] stands for this setting: 2.5 mg/kg BW intravenously at the time of CLP, 20 h after CLP, means±SE, n = 6/group.

Regarding `CC1c2ccccc2CN1CC1=NCCN1.O=C(O)/C=C\C(=O)O` (stereo not drawn) [BRL-44408 maleate], in the assay with Kupffer cells (KCs), the “reduction of TNF-α secretion” value was found to be 51%. Further, in assay [1] (setting [2]), the “ALT (serum level)” value turned out to be 20.5 ± 4.5 IU/L, the “AST (serum level)” value is reported as 20.9 ± 5.3 IU/L, the “Creatinine (serum level)” value amounted to 1.1 ± 0.2 mg/dL and the “Lactate (serum level)” value was determined as 20.6 ± 1.9 mg/dL. Further, the “TNF-α (serum level)” value in assay [1] (setting [2]) stood at 91.8 ± 8.1 pg/mL. Further, the “TNF-α/G3PDH (mRNA)” value in assay [1] (liver gene expression, 2.5 mg/kg BW intravenously at the time of CLP, 20 h after CLP, means±SE, n = 6/group) is reported as 0.5 ± 0.1. Besides, the “10-day survival / mortality” value in assay [1] (necrotic cecum excised at 20 h post-CLP, FIG. 1) was “increased survival; also recorded: reduced mortality”.

As for `NC[C@H](O)c1ccc(O)c(O)c1` [NE, norepinephrine], the “increase of the release of TNF-α” value in the assay on Kupffer cells (KCs) worked out at 3.4 fold.
